# Values joined by “and” are separate entries in the source; they are usually repeats but may differ in a detail not shown here. Equal entries are not always repeated.
# Test system: PGC-1α
# Test: In vivo PGC-1α expression in liver of LPS-treated mice (ELISA)
# Set-up: species or system C57BL/6 mice
# Conditions: LPS 3 mg/Kg IP, test compound 10 mg/kg PO BID, liver, 24 hours post LPS; for PGC-1α levels: C57BL/6 mice; for PGC-1α level (%): Control = 100
# Procedure: C57BL/6 mice were procured from Vivo Bio Tech Ltd. Male mice were used for the study within an age range of 7 to 8 weeks. Body weight for these mice ranged from 20 g to 25 g. Animals were housed in a group of 6 in individually ventilated cages with temperature of 22±3° C., a relative humidity of 50 to 60%. The bottom of the cages was layered with sterilized corn cob. Animals were provided with gamma irradiated feed and autoclaved drinking water ad-libitum. The IVCs were maintained at an environment controlled (Centrally Air-Conditioned) room at a temperature of 22±3° C., a relative humidity of 50 to 60%, light intensity of 250-300 lux and a 12 hour light-dark cycle and noise intensity of <85 db.
# Method of Preparation: LPS was dosed at 3 mg/kg in a dose volume of 10 ml/kg. For this, 0.3 mg/ml of LPS solution (Micronized suspension) was prepared. Butter paper was placed on analytical balance, tarred and LPS was placed on butter paper and its weight was noted down. LPS was transferred to 15 ml falcon tube. Then required amount of normal saline was added to it to make it 0.3 mg/ml. The solution was vortexed properly for 5 minutes and placed on ice. LPS solution was vortexed every time before aspiration and injection.
# LPS was dosed at 3 mg/kg. Each test compound was dosed at 10 mg/kg, 2 hour and 15 min post LPS administration.
# 0.5% CMC was used as a vehicle with a dose volume of 10 ml/kg. An IP route was used for LPS, and a PO route was used for each test compound. Animals were sacrified 24 hours post LPS dosing, and plasma were collected. PGC-1α level was measured in liver samples, and other tissues were stored for future analysis. PGC-1α level was checked using ELISA kit—CUSABIO Mouse PPARGC1A ELISA kit.
# Protocol: One day before start of the experiment C57BL/6 Mice (Male, 6-7-week-old) were randomized on the basis of their body weight and were divided into groups. All the cages were assigned the respective group name. Animals inside each cage were marked on the base of the tails with permanent marker to distinguish each animal. Mice were fasted overnight. Next day morning animals were dosed with test item. Group 1 (Control) and Group 2 (LPS) Animals were dosed with vehicle (0.5% CMC). Test items were prepared in 0.5% CMC by trituration in mortar and pestle and addition of CMC drop by drop. 2 hour post test item/vehicle dosing animals were administered with LPS through IP route at 3 mg/kg of body weight. Group 1 (Control) animals were administered with saline. 0.25 hour post LPS administration, animals were again dosed with test item/vehicle. Post dosing, animals were returned to their respective cages and kept until termination of the study. No feed was offered to any group. Animals were provided with water. 24 hour post LPS administration, blood was collected from each animal under influence of mild isoflurane anesthesia through retro-orbital technique. Animals were sacrificed by CO2 asphyxiation technique. Post-termination, animals were dissected and vital organs, liver, brain, skeleton muscle were collected in Eppendorf tubes and flash frozen in liquid nitrogen. Serum was collected from whole blood by centrifuging it at 4° C. at 10,000 RPM and for 10 minutes. (Blood was left for 2 hour for coagulation before centrifugation) After completion of the experiment, all collected samples were stored at −80° C. until analysis.
# Assay Methods/Protocol: The mortar was chilled with liquid nitrogen and then the small tissue pieces were grinded in the presence of liquid nitrogen to a fine powder. Immediately after grinding, transferred small amount of tissue powder to a 1.5 ml micro centrifuge tube containing 1.0 ml lysis buffer (RIPA buffer+Protease inhibitor). The samples were then incubated on ice for 2 hours. The samples were vortexed every 15 minutes. The samples were then centrifuged at 13000×g for 15 minutes at 2-8° C. After centrifugation the supernatant was removed carefully and pellet was discarded. […]
Structure (SMILES),PGC-1α levels,PGC-1α level (%)
"CN1C(=O)CC[C@@]2(C)C1=CCC1C2[C@@H](O)C[C@@]2(C)C1CC[C@@H]2NC(=O)C1CC1 (stereo partly drawn) [Compound 26, N-((4aR,5S,6aS,7S)-5-hydroxy-1,4a,6a-trimethyl-2-oxo-2,3,4,4a,4b,5,6,6a,7,8,9,9a,9b,10-tetradecahydro-1H-indeno[5,4-f]quinolin-7-yl)cyclopropanecarboxamide]",32298 pg/mL,84%
"CC(C)CCNC(=O)C1CCC2C3CC=C4N(C)C(=O)CC[C@]4(C)C3[C@@H](O)C[C@]12C (stereo partly drawn) [Compound 36, (4aR,5S,6aS)-5-hydroxy-N-isopentyl-1,4a,6a-trimethyl-2-oxo-2,3,4,4a,4b,5,6,6a,7,8,9,9a,9b,10-tetradecahydro-1H-indeno[5,4-f]quinoline-7-carboxamide]",29341 pg/mL,77%
"CNC(=O)[C@H]1CCC2C3CC=C4N(C)C(=O)CC[C@]4(C)C3[C@@H](O)C[C@@]21C (stereo partly drawn) [Compound 40, (4aR,5S,6aS)-5-hydroxy-N,1,4a,6a-tetramethyl-2-oxo-2,3,4,4a,4b,5,6,6a,7,8,9,9a,9b,10-tetradecahydro-1H-indeno[5,4-f] quinoline-7-carboxamide]",39014 pg/mL and 22668 pg/mL,73% and 75%
